The source of these data is PubChem BioAssay AID1259407 (Chemical Carcinogenesis Research Information System (CCRIS), 2018).

The structures appear in SMILES notation. Activity calls are given as the source filed them. No rule for the calls is given here.

The subject of the data set is CCRIS mutagenicity, Ames/micronucleus/aberration tests. The data set is described as follows: CCRIS mutagenicity studies.
Where [1] appears, read: Test System: AMES SALMONELLA TYPHIMURIUM, Strain/Indicator: TA98, Metabolic Activation: NONE, Method: PREINCUBATION
The mark [2] stands for this setting: Test System: AMES SALMONELLA TYPHIMURIUM, Strain/Indicator: TA100, Metabolic Activation: NONE, Method: PREINCUBATION
[3] abbreviates: Test System: AMES SALMONELLA TYPHIMURIUM, Strain/Indicator: TA98, Metabolic Activation: NONE, Method: STANDARD PLATE.
The mark [4] stands for this setting: Test System: Ames Salmonella typhimurium, Strain/Indicator: TA98, Metabolic Activation: None, Method: Preincubation.
Setting [5] is: Test System: Ames Salmonella typhimurium, Strain/Indicator: TA100, Metabolic Activation: None, Method: Preincubation.
Where [6] appears, read: Test System: Ames Salmonella typhimurium, Strain/Indicator: TA102, Metabolic Activation: None, Method: Preincubation.
Where [7] appears, read: Test System: AMES SALMONELLA TYPHIMURIUM, Strain/Indicator: TA100, Metabolic Activation: NONE, Method: STANDARD PLATE.
[8] abbreviates: Test System: AMES SALMONELLA TYPHIMURIUM, Strain/Indicator: TA1535, Metabolic Activation: NONE, Method: STANDARD PLATE.
Where [9] appears, read: Test System: AMES SALMONELLA TYPHIMURIUM, Strain/Indicator: TA1537, Metabolic Activation: NONE, Method: STANDARD PLATE.

Regarding `BrCCCCBr`, the mutagenic call is “active; positive (structural changes); authors report equivocal results for ploidy chang” (End Point: IN VITRO CHROMOSOMAL ABERRATIONS, Test System: CHL CELLS, Metabolic Activation: RAT, LIVER, S-9, SODIUM PHENOBARBITAL AND 5,6-BENZOFLAVONE); “inactive; negative” under setting [1]; “inactive; negative” (Test System: AMES SALMONELLA TYPHIMURIUM, Strain/Indicator: TA98, Metabolic Activation: RAT LIVER S-9, PHENOBARBITAL AND BETA-NAPHTHOFLAVONE, Method: PREINCUBATION); “inactive; negative” under setting [2]; “active; positive” (Test System: AMES SALMONELLA TYPHIMURIUM, Strain/Indicator: TA1535, Metabolic Activation: NONE, Method: PREINCUBATION); “active; positive” (Test System: AMES SALMONELLA TYPHIMURIUM, Strain/Indicator: TA1535, Metabolic Activation: RAT LIVER S-9, PHENOBARBITAL AND BETA-NAPHTHOFLAVONE, Method: PREINCUBATION). Also, the mutagenic call (Test System: AMES SALMONELLA TYPHIMURIUM, Strain/Indicator: TA1537, Metabolic Activation: NONE, Method: PREINCUBATION) is “inactive; negative”; the mutagenic call (Test System: AMES SALMONELLA TYPHIMURIUM, Strain/Indicator: TA1537, Metabolic Activation: RAT LIVER S-9, PHENOBARBITAL AND BETA-NAPHTHOFLAVONE, Method: PREINCUBATION) was “inactive; negative”; the mutagenic call (Test System: E.COLI, Strain/Indicator: WP2UVRA, Metabolic Activation: NONE, Method: PREINCUBATION) is “active; positive”; the mutagenic call (Test System: E.COLI, Strain/Indicator: WP2UVRA, Metabolic Activation: RAT LIVER S-9, PHENOBARBITAL AND BETA-NAPHTHOFLAVONE, Method: PREINCUBATION) is “active; positive”.
Consider `O=C/C(CCl)=C(/Cl)C(=O)O`, for which the mutagenic call reads like this: under setting [1], “active; positive”; under setting [2], “active; positive”; (Test System: AMES SALMONELLA TYPHIMURIUM, Strain/Indicator: TA104, Metabolic Activation: NONE, Method: PREINCUBATION) “active; positive”.
`O=Nc1ccc(Oc2ccccc2)cc1`: the mutagenic call under setting [3] is “active; positive” and the mutagenic call (Test System: AMES SALMONELLA TYPHIMURIUM, Strain/Indicator: TA100, Metabolic Activation: GUINEA PIG, LIVER, S-9, KANECLOR 500, Method: STANDARD PLATE) was “active; positive”.
For `C=CC1=C(C)/C(=C/c2[nH]c(Cc3[nH]c(/C=C4\NC(=O)C(C)=C4C=C)c(C)c3CCC(=O)O)c(CCC(=O)O)c2C)NC1=O`, the mutagenic call runs as follows: (Test System: Ames Salmonella typhimurium, Strain/Indicator: TA98, Metabolic Activation: Liver, S-9, Method: Preincubation) “inactive; negative”; under setting [4], “inactive; negative”; (Test System: Ames Salmonella typhimurium, Strain/Indicator: TA100, Metabolic Activation: Liver, S-9, Method: Preincubation) “inactive; negative”; under setting [5], “inactive; negative”; (Test System: Ames Salmonella typhimurium, Strain/Indicator: TA102, Metabolic Activation: Liver, S-9, Method: Preincubation) “inactive; negative”; under setting [6], “inactive; negative”.
Take `O=C1CCc2c1ccc1c2ccc2ccccc21`: the mutagenic call runs as follows: (Test System: AMES SALMONELLA TYPHIMURIUM, Strain/Indicator: TA100, Metabolic Activation: RAT, LIVER, MICROSOMES, AROCLOR 1254, Method: STANDARD PLATE) “active; positive”; (Test System: AMES SALMONELLA TYPHIMURIUM, Strain/Indicator: TA100, Metabolic Activation: RAT, LIVER, MICROSOMES, BENZO[A]PYRENE, Method: STANDARD PLATE) “inactive; negative”; (Test System: AMES SALMONELLA TYPHIMURIUM, Strain/Indicator: TA100, Metabolic Activation: RAT, LIVER, MICROSOMES, CLOFIBRATE, Method: STANDARD PLATE) “inactive; negative”; (Test System: AMES SALMONELLA TYPHIMURIUM, Strain/Indicator: TA100, Metabolic Activation: RAT, LIVER, MICROSOMES, DEXAMETHASONE, Method: STANDARD PLATE) “inactive; negative”; (Test System: AMES SALMONELLA TYPHIMURIUM, Strain/Indicator: TA100, Metabolic Activation: RAT, LIVER, MICROSOMES, ISONIAZID, Method: STANDARD PLATE) “inactive; negative”; (Test System: AMES SALMONELLA TYPHIMURIUM, Strain/Indicator: TA100, Metabolic Activation: RAT, LIVER, MICROSOMES, PHENOBARBITONE, Method: STANDARD PLATE) “inactive; negative”.
In the case of `CC(=O)N(O)c1ccc2c(ccc3ccccc32)c1`, the mutagenic call (Test System: UDS HUMAN FIBROBLASTS, Strain/Indicator: THY INCORP (NON-S-PHASE), Metabolic Activation: NONE, Method: AUTORADIOGRAPHY) was “active; positive”.
In the case of `OC[C@@H](O)[C@@H](O)CO`, the mutagenic call runs as follows: under setting [3], “inactive; negative”; (Test System: AMES SALMONELLA TYPHIMURIUM, Strain/Indicator: TA98, Metabolic Activation: RAT, LIVER, S-9, Method: STANDARD PLATE) “inactive; negative”; under setting [7], “inactive; negative”; (Test System: AMES SALMONELLA TYPHIMURIUM, Strain/Indicator: TA100, Metabolic Activation: RAT, LIVER, S-9, Method: STANDARD PLATE) “inactive; negative”; under setting [8], “inactive; negative”; (Test System: AMES SALMONELLA TYPHIMURIUM, Strain/Indicator: TA1535, Metabolic Activation: RAT, LIVER, S-9, Method: STANDARD PLATE) “inactive; negative”. For the same compound, the mutagenic call reads like this: under setting [9], “inactive; negative”; (Test System: AMES SALMONELLA TYPHIMURIUM, Strain/Indicator: TA1537, Metabolic Activation: RAT, LIVER, S-9, Method: STANDARD PLATE) “inactive; negative”; (Test System: E. COLI, Strain/Indicator: WP2 UVRA, Metabolic Activation: NONE, Method: STANDARD PLATE) “inactive; negative”; (Test System: E. COLI, Strain/Indicator: WP2 UVRA, Metabolic Activation: RAT, LIVER, S-9, Method: STANDARD PLATE) “inactive; negative”.
For `O=C(O[C@H]1Cc2c(O)cc(O)cc2O[C@H]1c1ccc(O)c(O)c1)c1cc(O)c(O)c(O)c1`, the mutagenic call by setting is: under setting [6], “inactive; negative”; (Test System: Ames Salmonella typhimurium, Strain/Indicator: TA102, Metabolic Activation: Rat, Liver, S-9, Aroclor 1254 in 0.154 M KCl, Method: Preincubation) “inactive; negative”.
For the compound `Cc1ccc(NS(=O)(=O)c2cccc3cccnc23)cc1`, the mutagenic call under setting [3] is “inactive; negative”; the mutagenic call (Test System: AMES SALMONELLA TYPHIMURIUM, Strain/Indicator: TA98, Metabolic Activation: RAT, LIVER, S-9, AROCLOR 1254, Method: STANDARD PLATE) was “inactive; negative”; the mutagenic call under setting [7] is “inactive; negative”; the mutagenic call (Test System: AMES SALMONELLA TYPHIMURIUM, Strain/Indicator: TA100, Metabolic Activation: RAT, LIVER, S-9, AROCLOR 1254, Method: STANDARD PLATE) is “inactive; negative”; the mutagenic call under setting [8] was “inactive; negative”; the mutagenic call (Test System: AMES SALMONELLA TYPHIMURIUM, Strain/Indicator: TA1535, Metabolic Activation: RAT, LIVER, S-9, AROCLOR 1254, Method: STANDARD PLATE) is “inactive; negative”. The mutagenic call is “inactive; negative” under setting [9] and “inactive; negative” (Test System: AMES SALMONELLA TYPHIMURIUM, Strain/Indicator: TA1537, Metabolic Activation: RAT, LIVER, S-9, AROCLOR 1254, Method: STANDARD PLATE).
With `CNc1ccc(O)c2c1C(=O)c1c(O)ccc(NC)c1C2=O`, the mutagenic call under setting [4] was “active; positive”; the mutagenic call under setting [5] is “active; positive”; the mutagenic call under setting [6] was “inactive; negative”; the mutagenic call (Test System: Ames Salmonella typhimurium, Strain/Indicator: TA1535, Metabolic Activation: None, Method: Preincubation) is “active; positive”.
